# In patent US7166296B2, “Pharmaceutical formulations and ligands for use therein; mimetics for UEA-1” (Sarlan, Ltd., priority 2001, dated 2007):
# Non-standard residues stand in square brackets, D forms with d. Residues, ends and D or L forms follow the SMILES beside them. *: point of attachment. Galloyl = O=C(c1cc(O)c(O)c(O)c1)*; Dap = NC[C@H](N)C(=O)O
# Legend:
# [1] = system: UEA-1 binding sites on Caco-2 cell membrane preparations; assay: Single tier competition assay: inhibition of biotinylated UEA-1 binding, compound and biotinylated UEA-1 incubated together; parameters: species or system human; details: Table 8, galloyl constructs; for IC50: read-out: IC 50 (uM) 1st tier (converted)
# Procedure, shortened: (§1)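 Plates coated with Caco-2 membrane preparation (10 μg/ml, carbonate buffer pH 9.6) and BSA-blocked. Single tier: compound and biotinylated UEA-1 incubated together overnight. Two tier: compound incubated overnight with membranes first, biotinylated UEA-1 added next. Bound UEA-1 detected by streptavidin-HRP/OPD, OD490.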
# [2] = system: UEA-1 binding sites on Caco-2 cell membrane preparations; assay: Two tier competition assay: compound incubated alone with membranes, biotinylated UEA-1 added in next step; parameters: species or system human; details: Table 8, galloyl constructs; for IC50: read-out: IC 50 (uM) 2nd tier
# Procedure, shortened: as §1
Compound,IC 50 (ug/ml) 1st tier [1],IC50 [1],IC 50 (ug/ml) 2nd tier [2],IC50 [2]
CC(=O)N[C@H](CCCCNC(=O)c1cc(O)c(O)c(O)c1)C(=O)N[C@H](CCCCNC(=O)c1cc(O)c(O)c(O)c1)C(=O)N[C@H](CCCCNC(=O)c1cc(O)c(O)c(O)c1)C(=O)N[C@H](CCCCNC(=O)c1cc(O)c(O)c(O)c1)C(=O)N[C@H](CCCCNC(=O)c1cc(O)c(O)c(O)c1)C(=O)N[C@H](CCCCNC(=O)c1cc(O)c(O)c(O)c1)C(N)=O [MSI 30 #11],13 µg/mL,7 µM,2 µg/mL,1 µM
CC(=O)N[C@H](CCCCNC(=O)c1cc(O)c(O)c(O)c1)C(=O)N[C@H](CCCCNC(=O)c1cc(O)c(O)c(O)c1)C(=O)N[C@H](CCCCNC(=O)c1cc(O)c(O)c(O)c1)C(=O)N[C@H](CCCCNC(=O)c1cc(O)c(O)c(O)c1)C(=O)N[C@H](CCCCNC(=O)c1cc(O)c(O)c(O)c1)C(=O)N[C@H](CCCCNC(=O)c1cc(O)c(O)c(O)c1)C(=O)N[C@H](CCCCNC(=O)c1cc(O)c(O)c(O)c1)C(N)=O [MSI 30 #14] (Ac-[dK](Galloyl)[dK](Galloyl)[dK](Galloyl)[dK](Galloyl)[dK](Galloyl)[dK](Galloyl)[dK](Galloyl)-NH2),17 µg/mL,8 µM,9 µg/mL,4 µM
NC(=O)[C@@H](CCCCNC(=O)c1cc(O)c(O)c(O)c1)NC(=O)[C@@H](CCCCNC(=O)c1cc(O)c(O)c(O)c1)NC(=O)[C@@H](CCCCNC(=O)c1cc(O)c(O)c(O)c1)NC(=O)[C@@H](CCCCNC(=O)c1cc(O)c(O)c(O)c1)NC(=O)[C@@H](CCCCNC(=O)c1cc(O)c(O)c(O)c1)NC(=O)[C@@H](CCCCNC(=O)c1cc(O)c(O)c(O)c1)NC(=O)[C@@H](CCCCNC(=O)c1cc(O)c(O)c(O)c1)NC(=O)c1cc(O)c(O)c(O)c1 [MSI 30 #16] (Galloyl-[dK](Galloyl)[dK](Galloyl)[dK](Galloyl)[dK](Galloyl)[dK](Galloyl)[dK](Galloyl)[dK](Galloyl)-NH2),19 µg/mL,9 µM,8 µg/mL,4 µM
NC(=O)C(CCCCNC(=O)C(CCCCNC(=O)C(CCCCNC(=O)c1cc(O)c(O)c(O)c1)NC(=O)c1cc(O)c(O)c(O)c1)NC(=O)C(CCCCNC(=O)c1cc(O)c(O)c(O)c1)NC(=O)c1cc(O)c(O)c(O)c1)NC(=O)C(CCCCNC(=O)C(CCCCNC(=O)c1cc(O)c(O)c(O)c1)NC(=O)c1cc(O)c(O)c(O)c1)NC(=O)C(CCCCNC(=O)c1cc(O)c(O)c(O)c1)NC(=O)c1cc(O)c(O)c(O)c1 (stereo not drawn) [MSI 30 #17],1st tier = 52nd tier = 5 ug/ml,2 µM,1st tier = 52nd tier = 5 ug/ml,2 µM
NC(=O)C(CNC(=O)C(CNC(=O)c1cc(O)c(O)c(O)c1)NC(=O)c1cc(O)c(O)c(O)c1)NC(=O)C(CNC(=O)c1cc(O)c(O)c(O)c1)NC(=O)c1cc(O)c(O)c(O)c1 (stereo not drawn) [MSI 34 1π5],0.5 µg/mL,0.5 µM,1 µg/mL,1 µM
NC(=O)[C@H](CNC(=O)c1cc(O)c(O)c(O)c1)NC(=O)c1cc(O)c(O)c(O)c1 [MSI 34 #1],1 µg/mL,4 µM,0.8 µg/mL,2 µM
NC(=O)C(CCCNC(=O)c1cc(O)c(O)c(O)c1)NC(=O)c1cc(O)c(O)c(O)c1 (stereo not drawn) [MSI 34 #3],2 µg/mL,4 µM,0.7 µg/mL,2 µM
NC(=O)C(Cc1ccc(NC(=O)C(Cc2ccc(NC(=O)c3cc(O)c(O)c(O)c3)cc2)NC(=O)c2cc(O)c(O)c(O)c2)cc1)NC(=O)C(Cc1ccc(NC(=O)c2cc(O)c(O)c(O)c2)cc1)NC(=O)c1cc(O)c(O)c(O)c1 (stereo not drawn) [MSI 34 #8],4 µg/mL,4 µM,3 µg/mL,2 µM
CC(=O)NC(CCCNC(=O)c1cc(O)c(O)c(O)c1)C(=O)NC(CCCNC(=O)c1cc(O)c(O)c(O)c1)C(=O)NC(CCCNC(=O)c1cc(O)c(O)c(O)c1)C(N)=O (stereo not drawn) [MSI 34 #15],8 µg/mL,9 µM,2 µg/mL,2 µM
NC(=O)C(CCNC(=O)c1cc(O)c(O)c(O)c1)NC(=O)C(CCNC(=O)c1cc(O)c(O)c(O)c1)NC(=O)C(CCNC(=O)c1cc(O)c(O)c(O)c1)NC(=O)c1cc(O)c(O)c(O)c1 (stereo not drawn) [MSI 34 #18],3 µg/mL,3 µM,0.9 µg/mL,1 µM
NC(=O)C(Cc1ccc(NC(=O)c2cc(O)c(O)c(O)c2)cc1)NC(=O)C(Cc1ccc(NC(=O)c2cc(O)c(O)c(O)c2)cc1)NC(=O)C(Cc1ccc(NC(=O)c2cc(O)c(O)c(O)c2)cc1)NC(=O)c1cc(O)c(O)c(O)c1 (stereo not drawn) [MSI 34 #20],2 µg/mL,2 µM,6 µg/mL,5 µM

# Results, then the compound that gave them:
IC 50 (ug/ml) 1st tier [1],IC50 [1],IC 50 (ug/ml) 2nd tier [2],IC50 [2],Compound
23 µg/mL,14 µM,5 µg/mL,3 µM,NC(=O)[C@@H](CCCCNC(=O)c1cc(O)c(O)c(O)c1)NC(=O)[C@@H](CCCCNC(=O)c1cc(O)c(O)c(O)c1)NC(=O)[C@@H](CCCCNC(=O)c1cc(O)c(O)c(O)c1)NC(=O)[C@@H](CCCCNC(=O)c1cc(O)c(O)c(O)c1)NC(=O)[C@@H](CCCCNC(=O)c1cc(O)c(O)c(O)c1)NC(=O)c1cc(O)c(O)c(O)c1 [MSI 30 #10] (Galloyl-[dK](Galloyl)[dK](Galloyl)[dK](Galloyl)[dK](Galloyl)[dK](Galloyl)-NH2)
0.6 µg/mL,0.6 µM,1 µg/mL,1 µM,NC(=O)C(CCNC(=O)C(CCNC(=O)c1cc(O)c(O)c(O)c1)NC(=O)c1cc(O)c(O)c(O)c1)NC(=O)C(CCNC(=O)c1cc(O)c(O)c(O)c1)NC(=O)c1cc(O)c(O)c(O)c1 (stereo not drawn) [MSI 34 #6]
0.9 µg/mL,0.9 µM,1 µg/mL,1 µM,NC(=O)C(CCCNC(=O)C(CCCNC(=O)c1cc(O)c(O)c(O)c1)NC(=O)c1cc(O)c(O)c(O)c1)NC(=O)C(CCCNC(=O)c1cc(O)c(O)c(O)c1)NC(=O)c1cc(O)c(O)c(O)c1 (stereo not drawn) [MSI 34 #7]
0.6 µg/mL,0.9 µM,0.5 µg/mL,0.8 µM,NC(=O)C(CNC(=O)c1cc(O)c(O)c(O)c1)NC(=O)C(CNC(=O)c1cc(O)c(O)c(O)c1)NC(=O)c1cc(O)c(O)c(O)c1 (stereo not drawn) [MSI 34 #9]
0.6 µg/mL,0.9 µM,0.7 µg/mL,1 µM,NC(=O)C(CCNC(=O)c1cc(O)c(O)c(O)c1)NC(=O)C(CCNC(=O)c1cc(O)c(O)c(O)c1)NC(=O)c1cc(O)c(O)c(O)c1 (stereo not drawn) [MSI 34 #10]
1 µg/mL,2 µM,0.8 µg/mL,1 µM,NC(=O)C(CCCNC(=O)c1cc(O)c(O)c(O)c1)NC(=O)C(CCCNC(=O)c1cc(O)c(O)c(O)c1)NC(=O)c1cc(O)c(O)c(O)c1 (stereo not drawn) [MSI 34 #11]
6 µg/mL,8 µM,4 µg/mL,5 µM,NC(=O)C(Cc1ccc(NC(=O)c2cc(O)c(O)c(O)c2)cc1)NC(=O)C(Cc1ccc(NC(=O)c2cc(O)c(O)c(O)c2)cc1)NC(=O)c1cc(O)c(O)c(O)c1 (stereo not drawn) [MSI 34 #12]
1st tier = 22nd tier = 2 ug/ml,3 µM,1st tier = 22nd tier = 2 ug/ml,2 µM,CC(=O)NC(CNC(=O)c1cc(O)c(O)c(O)c1)C(=O)NC(CNC(=O)c1cc(O)c(O)c(O)c1)C(=O)NC(CNC(=O)c1cc(O)c(O)c(O)c1)C(N)=O (stereo not drawn) [MSI 34 #13]
2 µg/mL,2 µM,1 µg/mL,1 µM,CC(=O)NC(CCNC(=O)c1cc(O)c(O)c(O)c1)C(=O)NC(CCNC(=O)c1cc(O)c(O)c(O)c1)C(=O)NC(CCNC(=O)c1cc(O)c(O)c(O)c1)C(N)=O (stereo not drawn) [MSI 34 #14]
3 µg/mL,3 µM,6 µg/mL,6 µM,CC(=O)NC(Cc1ccc(NC(=O)c2cc(O)c(O)c(O)c2)cc1)C(=O)NC(Cc1ccc(NC(=O)c2cc(O)c(O)c(O)c2)cc1)C(=O)NC(Cc1ccc(NC(=O)c2cc(O)c(O)c(O)c2)cc1)C(N)=O (stereo not drawn) [MSI 34 #16]
1 µg/mL,1 µM,0.7 µg/mL,0.8 µM,NC(=O)C(CNC(=O)c1cc(O)c(O)c(O)c1)NC(=O)C(CNC(=O)c1cc(O)c(O)c(O)c1)NC(=O)C(CNC(=O)c1cc(O)c(O)c(O)c1)NC(=O)c1cc(O)c(O)c(O)c1 (stereo not drawn) [MSI 34 #17]
11 µg/mL,11 µM,1 µg/mL,1 µM,NC(=O)C(CCCNC(=O)c1cc(O)c(O)c(O)c1)NC(=O)C(CCCNC(=O)c1cc(O)c(O)c(O)c1)NC(=O)C(CCCNC(=O)c1cc(O)c(O)c(O)c1)NC(=O)c1cc(O)c(O)c(O)c1 (stereo not drawn) [MSI 34 #19]
2 µg/mL,2 µM,1 µg/mL,1 µM,CC(=O)N[C@@H](CNC(=O)c1cc(O)c(O)c(O)c1)C(=O)N[C@@H](CNC(=O)c1cc(O)c(O)c(O)c1)C(=O)N[C@@H](CNC(=O)c1cc(O)c(O)c(O)c1)C(=O)N[C@@H](CNC(=O)c1cc(O)c(O)c(O)c1)C(N)=O [MSI 34 #21] (Ac-[Dap](Galloyl)[Dap](Galloyl)[Dap](Galloyl)[Dap](Galloyl)-NH2)
